Laboratory results from patent US20090186111A1, “Novel Bacteria and Pharmaceutically Active Products Obtained Therefrom” (priority 2004, published 2009).

Test system: S. aureus LSLT1111
Experiment: Antibiogram of S. aureus LSLT1111

| Molecule | Diameter of clear area [mm] | Sensitivity to antibiotic |
| --- | --- | --- |
| CC1(C)S[C@@H]2[C@H](NC(=O)[C@H](N)c3ccccc3)C(=O)N2[C@H]1C(=O)O [Ampicillin] | 12.6 | Resistant |
| CC(=O)OCC1=C(C(=O)O)N2C(=O)[C@@H](NC(=O)Cc3cccs3)[C@H]2SC1 [Cephalothin] | 28.8 | Sensitive |
| O=C(N[C@H](CO)[C@H](O)c1ccc([N+](=O)[O-])cc1)C(Cl)Cl [Chloramphenicol] | 18.6 | Sensitive |
| CC[C@H]1OC(=O)[C@H](C)[C@@H](O[C@H]2C[C@@](C)(OC)[C@@H](O)[C@H](C)O2)[C@H](C)[C@@H](O[C@@H]2O[C@H](C)C[C@H](N(C)C)[C@H]2O)[C@](C)(O)C[C@@H](C)C(=O)[C@H](C)[C@@H](O)[C@]1(C)O [Erythromycin] | 17.3 | Resistant/Sensitive |
| CCC[C@@H]1C[C@@H](C(=O)N[C@@H]([C@H]2O[C@H](SC)[C@H](O)[C@@H](O)[C@H]2O)[C@@H](C)O)N(C)C1 [Lincomycin] | 16.7 | Resistant/Sensitive |
| COc1cccc(OC)c1C(=O)N[C@@H]1C(=O)N2[C@@H]1SC(C)(C)[C@@H]2C(=O)O [Meticillin] | 23.3 | Sensitive |
| CN(C)[C@@H]1C(=O)C(C(N)=O)=C(O)[C@@]2(O)C(=O)C3=C(O)c4c(O)cccc4[C@@](C)(O)[C@H]3C[C@@H]12 [Tetracyclin] | 19.8 | Sensitive |
| CN[C@H](CC(C)C)C(=O)N[C@H]1C(=O)N[C@@H](CC(N)=O)C(=O)N[C@H]2C(=O)N[C@H]3C(=O)N[C@H](C(=O)N[C@H](C(=O)O)c4cc(O)cc(O)c4-c4cc3ccc4O)[C@H](O)c3ccc(c(Cl)c3)Oc3cc2cc(c3O[C@@H]2O[C@H](CO)[C@@H](O)[C@H](O)[C@H]2O[C@H]2C[C@](C)(N)[C@H](O)[C@H](C)O2)Oc2ccc(cc2Cl)[C@H]1O [Vancomycin] | 11.9 | Sensitive |
| Amox. Clav. ac | 28.0 | Sensitive |
| Gentamicin | 16.6 | Sensitive |
| Neomycin | 14.7 | Resistant/Sensitive |
| Penicillin | 9.0 | Resistant |
| Sulpha/trimethoprim | 18.8 | Sensitive |
